Test results taken from ChEMBL document CHEMBL4376834, “Discovery of 4H-Chromen-4-one Derivatives as a New Class of Selective Rho Kinase (ROCK) Inhibitors, which Showed Potent Activity in ex Vivo Diabetic Retinopathy Models” (J Med Chem, 2019).

Legend:
[1] = biological target: Serine/threonine-protein kinase Sgk2 (Homo sapiens, UniProt Q9HBY8, S416D); assay: Inhibition of recombinant human SGK2 S416D mutant (54 to end residues) using GRPRTSSFAEGKK as substrate incubated for 40 mins in presence of [gamma33P]ATP by radiometric scintillation counting analysis
[2] = biological target: Mitogen-activated protein kinase kinase kinase 2 (Homo sapiens, UniProt Q9Y2U5); assay: Inhibition of recombinant full length human MEKK2 using myelin basic protein as substrate incubated for 40 mins in presence of [gamma-33ATP by radiometric scintillation counting analysis
[3] = biological target: Serine/threonine-protein kinase 25 (Homo sapiens, UniProt O00506); assay: Inhibition of recombinant human STK25 (1 to 308 residues) using RLGRDKYKTLRQI as substrate incubated for 40 mins in presence of [gamma33P]ATP by radiometric scintillation counting analysis
Chain of Serine/threonine-protein kinase 25 (O00506 whole entry, the tested form may be a part, canonical isoform): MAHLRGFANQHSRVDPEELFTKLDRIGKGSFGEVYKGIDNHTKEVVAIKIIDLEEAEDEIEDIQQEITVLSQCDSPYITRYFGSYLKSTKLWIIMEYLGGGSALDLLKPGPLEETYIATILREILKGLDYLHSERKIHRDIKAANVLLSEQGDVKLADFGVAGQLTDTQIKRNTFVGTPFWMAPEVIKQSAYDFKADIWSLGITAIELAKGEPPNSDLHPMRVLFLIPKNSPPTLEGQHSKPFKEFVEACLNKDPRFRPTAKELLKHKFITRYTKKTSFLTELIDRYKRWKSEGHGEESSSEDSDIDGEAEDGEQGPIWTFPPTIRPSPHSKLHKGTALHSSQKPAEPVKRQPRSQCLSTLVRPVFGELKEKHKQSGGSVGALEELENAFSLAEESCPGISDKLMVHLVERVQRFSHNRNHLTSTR

[4] = biological target: Casein kinase I isoform delta (Homo sapiens, UniProt P48730); assay: Inhibition of recombinant human CK1delta (1 to 294 residues) using KRRRALS(p)VAS as substrate incubated for 40 mins in presence of [gamma-33ATP] by radiometric scintillation counting analysis
LIM domain kinase 1 = LIM domain kinase 1 (Homo sapiens, UniProt P53667); assay: Inhibition of recombinant human LIMK1 (285 to 638 residues) using cofilin as substrate after 40 mins in presence of [gamma-33ATP] by radiometric scintillation counting analysis
Chain of LIM domain kinase 1 (P53667 whole entry, the tested form may be a part): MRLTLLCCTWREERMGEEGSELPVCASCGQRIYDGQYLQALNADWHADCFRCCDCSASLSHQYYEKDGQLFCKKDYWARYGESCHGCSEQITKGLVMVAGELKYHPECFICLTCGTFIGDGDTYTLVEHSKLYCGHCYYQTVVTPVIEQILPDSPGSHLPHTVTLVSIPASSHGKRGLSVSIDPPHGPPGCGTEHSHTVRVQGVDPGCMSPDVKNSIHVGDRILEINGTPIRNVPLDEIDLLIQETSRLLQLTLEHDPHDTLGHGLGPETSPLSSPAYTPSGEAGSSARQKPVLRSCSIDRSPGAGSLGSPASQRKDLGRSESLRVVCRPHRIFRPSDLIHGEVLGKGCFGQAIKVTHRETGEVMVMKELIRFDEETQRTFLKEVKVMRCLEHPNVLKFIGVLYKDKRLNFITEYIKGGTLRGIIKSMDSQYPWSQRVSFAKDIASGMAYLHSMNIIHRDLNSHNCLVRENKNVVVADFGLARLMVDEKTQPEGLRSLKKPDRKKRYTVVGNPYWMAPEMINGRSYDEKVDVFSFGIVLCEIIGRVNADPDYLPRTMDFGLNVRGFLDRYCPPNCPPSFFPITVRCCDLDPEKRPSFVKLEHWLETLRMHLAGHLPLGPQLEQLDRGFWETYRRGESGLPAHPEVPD

[5] = biological target: Serine/threonine-protein kinase PLK3 (Homo sapiens, UniProt Q9H4B4); assay: Inhibition of recombinant human Plk3 (19 to 301 residues) using casein as substrate incubated for 40 mins in presence of [gamma33P]ATP by radiometric scintillation counting analysis
[6] = Protein binding in monkey plasma at 1 uM incubated incubated for 5 hrs under shaking conditions by LC-MS analysis; type: ADME, cell-free, Macaca mulatta; details: rhesus monkey, read-out: PPB (converted)
[7] = biological target: Serine/threonine-protein kinase Nek3 (Homo sapiens, UniProt P51956); assay: Inhibition of recombinant full-length human NEK3 using myelin basic protein as substrate measured after 40 mins in presence of [gamma33P]ATP by radiometric scintillation counting analysis
[8] = biological target: Serine/threonine-protein kinase 32C (Homo sapiens, UniProt Q86UX6); assay: Inhibition of recombinant human full length STK32C using casein as substrate incubated for 120 mins in presence of [gamma33P]ATP by radiometric scintillation counting analysis
Chain of Serine/threonine-protein kinase 32C (Q86UX6 whole entry): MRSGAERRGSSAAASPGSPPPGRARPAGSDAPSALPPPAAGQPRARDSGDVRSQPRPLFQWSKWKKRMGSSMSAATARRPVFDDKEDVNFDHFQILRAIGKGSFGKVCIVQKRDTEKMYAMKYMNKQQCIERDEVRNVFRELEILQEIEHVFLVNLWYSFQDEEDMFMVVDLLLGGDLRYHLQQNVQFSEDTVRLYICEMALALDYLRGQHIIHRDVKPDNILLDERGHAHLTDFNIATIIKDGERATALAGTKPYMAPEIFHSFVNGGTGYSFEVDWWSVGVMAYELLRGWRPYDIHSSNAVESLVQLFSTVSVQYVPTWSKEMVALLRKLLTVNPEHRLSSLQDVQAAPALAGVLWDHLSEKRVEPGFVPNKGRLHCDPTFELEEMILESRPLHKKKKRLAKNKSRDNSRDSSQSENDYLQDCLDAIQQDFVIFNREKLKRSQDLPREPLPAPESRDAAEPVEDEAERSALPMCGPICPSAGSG

[9] = biological target: Ribosomal protein S6 kinase alpha-5 (Homo sapiens, UniProt O75582); assay: Inhibition of recombinant human MSK1 (2 to end residues) using GRPRTSSFAEGKK as substrate incubated for 40 mins in presence of [gamma-33ATP by radiometric scintillation counting analysis
Chain of Ribosomal protein S6 kinase alpha-5 (O75582 whole entry): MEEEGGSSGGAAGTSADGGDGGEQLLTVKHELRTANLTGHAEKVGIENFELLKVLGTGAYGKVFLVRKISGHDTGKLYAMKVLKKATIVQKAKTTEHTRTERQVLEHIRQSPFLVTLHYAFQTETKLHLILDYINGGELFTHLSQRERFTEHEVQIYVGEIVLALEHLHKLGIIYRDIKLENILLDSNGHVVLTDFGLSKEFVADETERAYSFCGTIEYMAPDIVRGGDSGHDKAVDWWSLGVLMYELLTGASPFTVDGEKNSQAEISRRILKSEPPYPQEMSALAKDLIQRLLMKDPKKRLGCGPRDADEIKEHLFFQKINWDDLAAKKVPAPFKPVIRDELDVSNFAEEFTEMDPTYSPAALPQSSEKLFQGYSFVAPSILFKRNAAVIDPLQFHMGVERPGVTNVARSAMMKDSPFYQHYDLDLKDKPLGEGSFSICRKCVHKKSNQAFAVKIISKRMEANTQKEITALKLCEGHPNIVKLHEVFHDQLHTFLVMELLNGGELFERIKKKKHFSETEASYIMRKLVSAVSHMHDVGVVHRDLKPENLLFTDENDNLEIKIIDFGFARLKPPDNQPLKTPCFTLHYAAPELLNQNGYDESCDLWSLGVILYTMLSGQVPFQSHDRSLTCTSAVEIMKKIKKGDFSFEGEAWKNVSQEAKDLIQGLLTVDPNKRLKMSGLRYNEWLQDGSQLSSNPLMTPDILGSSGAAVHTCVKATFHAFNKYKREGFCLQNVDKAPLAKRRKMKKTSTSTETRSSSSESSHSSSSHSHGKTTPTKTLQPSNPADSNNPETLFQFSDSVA

[10] = biological target: Tyrosine-protein kinase Lyn (Homo sapiens, UniProt P07948); assay: Inhibition of recombinant full length human Lyn using poly(Glu, Tyr) 4:1 as substrate after 40 mins in presence of [gamma-33ATP] by radiometric scintillation counting analysis
[11] = biological target: Inhibitor of nuclear factor kappa-B kinase subunit epsilon (Homo sapiens, UniProt Q14164); assay: Inhibition of recombinant full length human IKKepsilon using casein as substrate after 40 mins by [gamma-33ATP] by radiometric scintillation counting analysis
[12] = Protein binding in human plasma at 1 uM incubated incubated for 5 hrs under shaking conditions by LC-MS analysis; type: ADME, cell-free; details: read-out: PPB (converted)
[13] = biological target: Ribosomal protein S6 kinase alpha-6 (Homo sapiens, UniProt Q9UK32); assay: Inhibition of recombinant full length human Rsk4 using LRRASLG as substrate incubated for 40 mins in presence of [gamma33P]ATP by radiometric scintillation counting analysis
Chain of Ribosomal protein S6 kinase alpha-6 (Q9UK32 whole entry): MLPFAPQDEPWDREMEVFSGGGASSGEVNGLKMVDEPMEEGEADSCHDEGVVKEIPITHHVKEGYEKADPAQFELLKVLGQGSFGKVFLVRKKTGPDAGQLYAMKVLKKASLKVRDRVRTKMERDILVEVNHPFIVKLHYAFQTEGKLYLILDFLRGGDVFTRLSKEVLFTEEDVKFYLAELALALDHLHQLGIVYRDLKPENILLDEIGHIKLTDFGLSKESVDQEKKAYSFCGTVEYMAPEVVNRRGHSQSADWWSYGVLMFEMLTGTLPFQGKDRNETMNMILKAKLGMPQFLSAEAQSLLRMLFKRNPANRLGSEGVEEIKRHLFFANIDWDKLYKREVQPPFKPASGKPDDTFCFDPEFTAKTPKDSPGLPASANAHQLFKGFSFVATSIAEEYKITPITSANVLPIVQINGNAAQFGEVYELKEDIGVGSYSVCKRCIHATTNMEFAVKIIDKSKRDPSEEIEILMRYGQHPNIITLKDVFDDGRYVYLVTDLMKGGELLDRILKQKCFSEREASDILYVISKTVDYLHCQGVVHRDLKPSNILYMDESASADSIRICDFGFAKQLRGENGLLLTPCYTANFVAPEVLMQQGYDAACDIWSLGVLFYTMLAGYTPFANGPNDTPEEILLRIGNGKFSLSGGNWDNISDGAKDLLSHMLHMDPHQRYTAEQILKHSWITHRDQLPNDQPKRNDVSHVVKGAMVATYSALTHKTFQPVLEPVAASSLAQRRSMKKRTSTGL

[14] = biological target: MAP kinase-activated protein kinase 3 (Homo sapiens, UniProt Q16644); assay: Inhibition of recombinant human MAPKAPK3 (2 to end residues) using KKLNRTLSVA as substrate incubated for 40 mins in presence of [gamma-33ATP by radiometric scintillation counting analysis
Chain of MAP kinase-activated protein kinase 3 (Q16644 whole entry): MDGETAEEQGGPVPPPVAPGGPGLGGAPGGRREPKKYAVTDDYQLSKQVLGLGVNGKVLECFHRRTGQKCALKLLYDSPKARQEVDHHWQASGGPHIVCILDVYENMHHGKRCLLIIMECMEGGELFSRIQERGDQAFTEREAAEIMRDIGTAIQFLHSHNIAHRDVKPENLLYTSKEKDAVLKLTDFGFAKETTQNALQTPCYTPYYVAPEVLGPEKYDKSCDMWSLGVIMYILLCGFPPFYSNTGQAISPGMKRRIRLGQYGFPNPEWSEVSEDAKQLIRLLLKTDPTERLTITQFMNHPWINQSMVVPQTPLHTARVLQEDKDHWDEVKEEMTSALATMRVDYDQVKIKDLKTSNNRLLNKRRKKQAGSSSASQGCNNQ

[15] = biological target: Bone morphogenetic protein receptor type-1B (Homo sapiens, UniProt O00238); assay: Inhibition of human recombinant ALK6 (148 to end residues) using casein as substrate incubated for 40 mins in presence of [gamma-33P]ATP by radiometric scintillation counting analysis
[16] = biological target: Serine/threonine-protein kinase ULK3 (Homo sapiens, UniProt Q6PHR2); assay: Inhibition of recombinant human full length ULK3 using casein as substrate incubated for 40 mins in presence of [gamma33P]ATP by radiometric scintillation counting analysis
[17] = Inhibition of recombinant human MAPKAPK2 A399G mutant (46 to end residues) using KKLNRTLSVA as substrate incubated for 40 mins in presence of [gamma-33ATP by radiometric scintillation counting analysis
[18] = biological target: Tyrosine-protein kinase receptor TYRO3 (Homo sapiens, UniProt Q06418); assay: Inhibition of recombinant human RSE (451 to end residues) using KVEKIGEGTYGVV as substrate incubated for 40 mins in presence of [gamma33P]ATP by radiometric scintillation counting analysis
TGF-beta receptor type-1 = TGF-beta receptor type-1 (Homo sapiens, UniProt P36897, T204D); assay: Inhibition of recombinant human TGFBR1 T204D mutant (200 to end residues) using casein as substrate incubated for 40 mins in presence of [gamma33P]ATP by radiometric scintillation counting analysis
[19] = biological target: Fibroblast growth factor receptor 1 (Homo sapiens, UniProt P11362); assay: Inhibition of recombinant human FGFR1 (456 to 765 residues) using KKKSPGEYVNIEF as substrate after 40 mins in presence of [gamma-33ATP] by radiometric scintillation counting analysis
Chain of Fibroblast growth factor receptor 1 (P11362 whole entry, the tested form may be a part): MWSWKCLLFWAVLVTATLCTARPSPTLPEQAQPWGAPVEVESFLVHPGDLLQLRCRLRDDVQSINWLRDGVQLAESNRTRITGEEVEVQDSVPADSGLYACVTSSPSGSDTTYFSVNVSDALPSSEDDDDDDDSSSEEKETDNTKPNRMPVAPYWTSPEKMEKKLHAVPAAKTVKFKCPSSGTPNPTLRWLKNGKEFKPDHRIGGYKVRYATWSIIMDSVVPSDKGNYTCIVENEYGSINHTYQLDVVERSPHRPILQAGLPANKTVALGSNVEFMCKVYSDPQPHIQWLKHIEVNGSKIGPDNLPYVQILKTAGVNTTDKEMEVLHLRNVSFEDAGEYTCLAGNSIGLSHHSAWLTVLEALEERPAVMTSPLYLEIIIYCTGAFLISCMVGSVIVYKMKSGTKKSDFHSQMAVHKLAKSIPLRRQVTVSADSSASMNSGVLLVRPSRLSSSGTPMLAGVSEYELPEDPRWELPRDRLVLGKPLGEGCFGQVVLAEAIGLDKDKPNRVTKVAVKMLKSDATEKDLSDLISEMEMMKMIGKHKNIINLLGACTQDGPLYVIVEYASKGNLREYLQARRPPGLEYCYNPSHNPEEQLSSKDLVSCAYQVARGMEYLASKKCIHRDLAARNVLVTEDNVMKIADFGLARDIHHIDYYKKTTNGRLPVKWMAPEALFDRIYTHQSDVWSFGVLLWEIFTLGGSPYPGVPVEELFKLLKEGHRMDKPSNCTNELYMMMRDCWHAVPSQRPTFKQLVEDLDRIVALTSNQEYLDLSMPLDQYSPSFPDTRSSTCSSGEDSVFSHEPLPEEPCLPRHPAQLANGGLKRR

SRSF protein kinase 3 = SRSF protein kinase 3 (Homo sapiens, UniProt Q9UPE1); assay: Inhibition of recombinant full-length human MSSK1 using ERMRPRKRQGSVRRRV as substrate measured after 40 mins in presence of [gamma33P]ATP by radiometric scintillation counting analysis
[20] = biological target: Proto-oncogene tyrosine-protein kinase Src (Homo sapiens, UniProt P12931, T341M); assay: Inhibition of recombinant full length human SRC T341M mutant using GGEEEEYFELVKK as substrate incubated for 40 mins in presence of [gamma33P]ATP by radiometric scintillation counting analysis
[21] = biological target: Serine/threonine-protein kinase BRSK1 (Homo sapiens, UniProt Q8TDC3); assay: Inhibition of recombinant human BRSK1 ( 2 to end residues) using KKKVSRSGLYRSP substrate incubated for 40 mins in presence of [gamma-33ATP] by radiometric scintillation counting analysis
[22] = biological target: Mitogen-activated protein kinase 14 (Homo sapiens, UniProt Q16539, T106M); assay: Inhibition of recombinant human full length SAPK2a T106M mutant using myelin basic protein as substrate incubated for 40 mins in presence of [gamma33P]ATP by radiometric scintillation counting analysis
Chain of Mitogen-activated protein kinase 14 (Q16539 2-360 T106M limits assumed): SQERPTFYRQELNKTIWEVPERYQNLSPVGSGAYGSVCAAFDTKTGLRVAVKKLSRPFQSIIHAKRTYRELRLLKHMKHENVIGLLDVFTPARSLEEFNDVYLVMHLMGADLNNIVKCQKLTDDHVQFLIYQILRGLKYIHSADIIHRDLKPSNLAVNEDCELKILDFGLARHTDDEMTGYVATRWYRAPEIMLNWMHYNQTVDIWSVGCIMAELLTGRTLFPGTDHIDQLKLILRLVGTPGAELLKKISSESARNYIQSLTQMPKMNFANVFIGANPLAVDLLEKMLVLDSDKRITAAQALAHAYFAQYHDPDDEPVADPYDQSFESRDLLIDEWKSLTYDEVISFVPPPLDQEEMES

eIF-2-alpha kinase GCN2 = eIF-2-alpha kinase GCN2 (Homo sapiens, UniProt Q9P2K8, E556G); assay: Inhibition of recombinant full length human GCN2 E556G mutant using RSRSRSRSRSRSR as substrate after 40 mins in presence of [gamma-33ATP] by radiometric scintillation counting analysis

Question: Which IC50 [1] does the source give for `CN(C)c1ccc(C(=O)Nc2cccc(NC(=O)COc3ccc4c(=O)ccoc4c3)c2)cc1` here?
Answer: The IC50 was greater than 10 µM.

Question: What about the IC50 [2] of the same compound?
Answer: The IC50 was greater than 10 µM.

Question: What about the IC50 [3] of the same compound?
Answer: Its IC50 is greater than 10 µM.

Question: What about the IC50 [4] of the same compound?
Answer: Its IC50 is greater than 10 µM.

Question: And the IC50 (LIM domain kinase 1)?
Answer: The IC50 was greater than 10 µM.

Question: And the IC50 [5]?
Answer: Its IC50 is greater than 10 µM.

Question: And the fraction unbound at 5 h, 1 µM [6]?
Answer: Its fraction unbound at 5 h, 1 µM is 0.002.

Question: What about the IC50 [7] of the same compound?
Answer: The IC50 was greater than 10 µM.

Question: What about the IC50 [8] of the same compound?
Answer: The IC50 was greater than 10 µM.

Question: What about the IC50 [9] of the same compound?
Answer: The IC50 was greater than 10 µM.

Question: What about the IC50 [10] of the same compound?
Answer: Its IC50 is greater than 10 µM.

Question: And the IC50 [11]?
Answer: Its IC50 is greater than 10 µM.

Question: What about the fraction unbound at 5 h, 1 µM [12] of the same compound?
Answer: The fraction unbound at 5 h, 1 µM was 0.002.

Question: And the IC50 [13]?
Answer: Its IC50 is greater than 10 µM.

Question: And the IC50 [14]?
Answer: The IC50 was greater than 10 µM.

Question: What about the IC50 [15] of the same compound?
Answer: The IC50 was greater than 10 µM.

Question: What about the IC50 [16] of the same compound?
Answer: Its IC50 is greater than 10 µM.

Question: What about the IC50 [17] of the same compound?
Answer: The IC50 was greater than 10 µM.

Question: What about the IC50 [18] of the same compound?
Answer: The IC50 was greater than 10 µM.

Question: And the IC50 (TGF-beta receptor type-1)?
Answer: Its IC50 is greater than 10 µM.

Question: And the IC50 [19]?
Answer: Its IC50 is greater than 10 µM.

Question: And the IC50 (SRSF protein kinase 3)?
Answer: The IC50 was greater than 10 µM.

Question: And the IC50 [20]?
Answer: Its IC50 is greater than 10 µM.

Question: And the IC50 [21]?
Answer: Its IC50 is greater than 10 µM.

Question: What about the IC50 [22] of the same compound?
Answer: Its IC50 is greater than 10 µM.

Question: What about the IC50 (eIF-2-alpha kinase GCN2) of the same compound?
Answer: The IC50 was greater than 10 µM.
